According to patent US20200339651A1, “METHODS FOR B CELL PRECONDITIONING IN CAR THERAPY” (Novartis AG, priority 2014, published 2020):

Key:
NALM6-luc tumors = test: NALM6-luc tumor growth in NSG mice with daily RAD001 dosing; format: in vivo; details: daily oral dosing of RAD001 alone at 0.3, 1, 3, and 10 mg/kg
Protocol: FIG. 8 depicts tumor growth measurements of NALM6-luc cells with daily RAD001 dosing at 0.3, 1, 3, and 10 mg/kg (mpk) or vehicle dosing. Circles denote the vehicle; squares denote the 10 mg/kg dose of RAD001; triangles denote the 3 mg/kg dose of RAD001, inverted triangles denote the 1 mg/kg dose of RAD001; and diamonds denote the 0.3 mg/kg dose of RAD001.
The NALM6 human acute lymphoblastic leukemia (ALL) cell line was developed from the peripheral blood of a patient with relapsed ALL. The cells were then tagged with firefly luciferase. These suspension cells grow in RPMI supplemented with 10% heat inactivated fetal bovine serum.
6 week old NSG (NOD.Cg-Prkdc^scidIl2rg^tm1Wjl/SzJ) mice were received from the Jackson Laboratory (stock number 005557).
NALM6-luc cells were grown and expanded in vitro in RPMI supplemented with 10% heat inactivated fetal bovine serum. The cells were then transferred to a 15 ml conical tube and washed twice with cold sterile PBS. NALM6-luc cells were then counted and resuspended at a concentration of 10×10^6 cells per milliliter of PBS. The cells were placed on ice and immediately (within one hour) implanted in the mice. NALM6-luc cells were injected intravenously via the tail vein in a 100 μl volume, for a total of 1×10^6 cells per mouse. […]

huCAR19 CAR T cells = test: In vivo proliferation of humanized CD19 CART cells with and without RAD001 dosing; set-up: species or system NSG mice
Protocol: Circles denote PBS; squares denote huCTL019; triangles denote huCTL019 with 3 mg/kg RAD001; inverted triangles denote huCTL019 with 0.3 mg/kg RAD001; diamonds denote huCTL019 with 0.03 mg/kg RAD001; and circles denote huCTL019 with 0.003 mg/kg RAD001.
Mice were administered 5×10^6 CAR T cells 7 days after tumor implantation. Cells were partially thawed in a 37 degree Celsius water bath and then completely thawed by the addition of 1 ml of cold sterile PBS to the tube containing the cells. The thawed cells were transferred to a 15 ml falcon tube and adjusted to a final volume of 10 mls with PBS. The cells were washed twice at 1000 rpm for 10 minutes each time and then counted on a hemocytometer. T cells were then resuspended at a concentration of 50×10^6 CAR T cells per ml of cold PBS and kept on ice until the mice were dosed. The mice were injected intravenously via the tail vein with 100 μl of the CAR T cells for a dose of 5×10^6 CAR T cells per mouse. Eight mice per group were treated either with 100 μl of PBS alone (PBS), or humanized CD19 CAR T cells.
(§1) A concentrated micro-emulsion of 50 mg equal to 1 mg RAD001 was formulated and then resuspended in D5W (dextrose 5% in water) at the time of dosing. Mice were orally dosed daily (via oral gavage) with 200 μl of the desired doses of RAD001.
Based on these doses, huCAR19 CAR T cells were dosed with and without RAD001 to determine the proliferative ability of these cells. The highest dose used was 3 mg/kg based on the levels of RAD001 in the blood 24 hours after dosing. As the concentration of RAD001 was above 10 nM 24 hours after the final dose of RAD001, several lower doses of RAD001 were used in the in vivo study with CAR T cells. The CAR T cells were dosed IV one day prior to the start of the daily oral RAD001 dosing. Mice were monitored via FACS for T cell expansion.

[1] = Pharmacokinetics of RAD001 in the blood of NSG mice with NALM6 tumors; format: in vivo
Protocol: Diamonds denote the […] dose of RAD001; squares denote the 1 mg/kg dose of RAD001; triangles denote the 3 mg/kg dose of RAD001; and x's denote the 10 mg/kg dose of RAD001.
as §1
Mice were dosed daily with RAD001 starting 7 days post tumor implantation. Dosing groups were as follows: 0.3 mg/kg, 1 mg/kg, 3 mg/kg, and 10 mg/kg. Mice were bled on days 0 and 14 following the first and last dose of RAD001, at the following time points for PK analysis: 15 minutes, 30 minutes, 1 hour, 2 hours, 4 hours, 8 hours, 12 hours, and 24 hours.

huCART19 cells = test: CART proliferation in 4 day co-culture with Nalm-6 cells in the presence of RAD001; format: cell-based, human
Excerpt: A humanized, anti-human CD19 CAR (huCART19) lentiviral transfer vector was used to produce the genomic material packaged into VSVg pseudotyped lentiviral particles. The amino acid and nucleotide sequence of the humanized anti-human CD19 CAR (huCART19) is CAR 1, ID 104875 described in PCT publication, WO2014/153270, filed Mar. 15, 2014, and is designated SEQ ID NOs. 85 and 31 therein.
Lentiviral transfer vector DNA is mixed with the three packaging components VSVg env, gag/pol and rev in combination with lipofectamine reagent to transfect Lenti-X 293T cells. Medium is changed after 24 h and 30 h thereafter, the virus-containing media is collected, filtered and stored at −80° C. CARTs are generated by transduction of fresh or frozen naïve T cells obtained by negative magnetic selection of healthy donor blood or leukopak. T cells are activated by incubation with anti-CD3/anti-CD28 beads for 24 h, after which viral supernatant or concentrated virus (MOI=2 or 10, respectively) is added to the cultures. The modified T cells are allowed to expand for about 10 days. The percentage of cells transduced (expressing the CARs on the cell surface) and the level of CAR expression (relative fluorescence intensity, Geo Mean) are determined by flow cytometric analysis between days 7 and 9. The combination of slowing growth rate and T cell size approaching ˜350 fL determines the state for T cells to be cryopreserved for later analysis.
To evaluate the functionality of CARTs, the T cells are thawed and counted, and viability is assessed by Cellometer. The number of CAR-positive cells in each culture is normalized using non-transduced T cells (UTD). The impact of RAD001 on CARTs was tested in titrations with RAD001, starting at 50 nM. The target cell line used in all co-culture experiments is Nalm-6, a human pre-B cell acute lymphoblastic leukemia (ALL) cell line expressing CD19 and transduced to express luciferase.
For measuring the proliferation of CARTs, T cells are cultured with target cells at a ratio of 1:1. […] The number of T cells is assessed by flow cytometry using counting beads as reference.

**Q.** Which results are given for `CO[C@H]1C[C@@H]2CC[C@@H](C)[C@@](O)(O2)C(=O)C(=O)N2CCCC[C@H]2C(=O)O[C@H]([C@H](C)C[C@@H]2CC[C@@H](OCCO)[C@H](OC)C2)CC(=O)[C@H](C)/C=C(\C)[C@@H](O)[C@@H](OC)C(=O)[C@H](C)C[C@H](C)/C=C/C=C/C=C/1C` [RAD001, (1R,9S,12S,15R,16E,18R,19R,21R,23S,24E,26E,28E,30S,32S,35R)-1,18-dihydroxy-12-{(1R)-2-[(1S,3R,4R)-4-(2-hydroxyethoxy)-3-methoxycyclohexyl]-1-methylethyl}-19,30-dimethoxy-15,17,21,23,29,35-hexamethyl-11,36-dioxa-4-aza-tricyclo[30.3.1.04,9]hexatriaconta-16,24,26,28-tetraene-2,3,10,14,20-pentaone]?
**A.** growth of NALM6-luc tumors (NALM6-luc tumors): did not have an impact; CAR T cell proliferation in vivo (huCAR19 CAR T cells; RAD001 0.003 mg/kg daily, huCTL019): enhancement in CAR T cell proliferation, above the normal level of huCAR19 proliferation; enhanced proliferation of CD4+ CAR T cells compared with CD8+ CAR T cells (huCAR19 CAR T cells; lowest doses of RAD001): more evident and prolonged; proliferation of CD8+ CAR T cells (huCAR19 CAR T cells; lowest doses of RAD001): enhanced proliferation can be seen at early time points; proliferation of the CAR T cells in vivo (huCAR19 CAR T cells; lowest doses of RAD001, daily oral): enhanced proliferation; concentration of RAD001 ([1]; 24 hours after the final dose of RAD001): above 10 nM; concentration at 24 h ([1]; NSG, mouse, whole blood, day 0, 24 hours after dosing, lowest dose tested (0.3 mg/kg), oral): > 10 nM; RAD001 concentration in the blood ([1]; day 14, 24 hours after dosing, lowest dose tested (0.3 mg/kg), oral): above 10 nm; stability in the blood ([1]; tumor bearing mice): fairly stable; proliferation of huCART19 cells compared with no RAD001 (huCART19 cells; 0.0032 and 0.016 nM RAD001, 4 day co-culture with Nalm-6): proliferation was higher than observed without the addition of RAD001; expansion of huCART19 cells (huCART19 cells; less than 0.016 nM of RAD001, 4 day co-culture with Nalm-6, 1:1): expanded; proliferation of CAR-expressing, transduced T cells (huCART19 cells; low doses of RAD001, cell culture system): enhanced
